Measured values taken from patent US20140322227A1, “PEPTIDES FOR TREATMENT OF BONE DEFICIENCY AND AUTOIMMUNE DISORDERS” (H. LEE MOFFITT CANCER CENTER & RESEARCH INSTITUTE, INC., priority 2013, published 2014).
Numbered stars: 1 amine (or outer) side, 2 acyl side, 3 side chain; on linkers, the order of the positions; unused ones are H or OH. Bridge positions count the residues as written; N and C are the ends. Square brackets hold non-standard residues; d marks the D form. Peptide text beside a SMILES is read from it. * marks the point of attachment. dProlinol(O-CH2CO) = O=C(COC[C@H]1CCCN1[*:1])[*:2]; N(2-Aminoethyl)Gly = O=C(CN(CCN[*:3])[*:1])[*:2]; Nle = CCCC[C@H](N)C(=O)O; Ms = CS(=O)(=O)*

Experiments:
[1] = Stability of MTI-101 in plasma (mouse); assay type: in vitro ADME; settings: room temperature
[2] = Stability of MTI-101 in plasma (dog); assay type: in vitro ADME
RAW 264.7 cells = experiment: Annexin V flow cytometry cell death assay in RAW 264.7 cells; assay type: cell-based, murine
Method: FIGS. 5A-5D show the effect of a cyclic HYD1 peptide (MTI-101) on RAW 264.7 cells (FIGS. 5A and 5B) and on RAW 264.7 cell-differentiated osteoclasts (FIGS. 5C and 5D). RAW 264.7 cells were treated with 6.25 to 50 μM MTI-101 and at the end of 24 hrs the cells were scrapped and spun down. After a single wash the cells were stained with Annexin V-FITC dye. The resulting Annexin V positivity was determined using Calibur Flow cytometry. RAW 264.7 cells were treated with 6.25 to 50 μM and incubated for 72 hrs. At the end of the incubation 2 mg/ml of 3-(4,5-dimethythiazol-2-yl)-2,5-diphenyl tetrazolium bromide (MTT). After 4 hours incubation, the resulting formazan product was solubilized by addition of DMSO and the resulting color was measured by a plate reader. […] For quantification, the cells in each treated well were manually counted using a light microscope (FIG. 5C). […]
FIGS. 6A-6C show the effect of cyclic peptide (MTI-101) on RAW 264.7 cells and on RAW 264.7 cell-differentiated osteoclasts. […] The resulting Annexin V positivity was determined using Calibur Flow cytometry. […] After 4 hours incubation the resulting formazan product was solubilized by addition of DMSO and the resulting color was measured by a plate reader. […] For quantification, the cells in each treated well were manually counted using a light microscope. […]

[3] = Stability of MTI-101 in plasma (rat); assay type: in vitro ADME
tumor bearing tibias = experiment: Bone density (BV/TV) of tumor bearing tibias by CT scanning in myeloma model; assay type: in vivo; settings: compared to vehicle control (VC) treated tumor bearing mice
Method: FIG. 43. MTI-101 treated mice show increased trabecular bone density compared to tumor-bearing vehicle control-treated mice (VC). The same 10 tibia bones imaged by Faxitron in FIG. 43 were imaged with a Micro PET/SPECT/CT (Siemens Inveon). After imaging, the bones were reconstructed using COBRA (Constraint Based Reconstruction and Analysis) and analyzed with the Siemens Inveon workstation. 30 separate longitudinal images for each tibia were measured for both bone volume and total volume with the indicated parameters (2 mm below growth plate to 2 mm above junction with fibula). All 30 images were combined and the tibia were analyzed by bone volume/total volume (BV/TV). Images of the control group were compared to both MTI-101 and bortezomib treated mice. […] The same bones that were assayed for tumor volume in FIG. 43 were used to determine bone density by CT scanning.

[4] = reported; independent of the direct effect on the myeloma cell; cited from earlier work
[5] = 4 degrees Celsius, read-out: Stability - 24 Hour 4 Degrees Celsius
[6] = room temperature, read-out: Stability - 24 Hour Room Temperature

Structure (SMILES)	remaining at 24 h [1] [%]	remaining at 24 h [2, 5] [%]	remaining at 24 h [2, 6] [%]	cell death (Annexin V positivity) (RAW 264.7 cells; multiple dosing 6.25 to 50 μM on days 1, 3 and 5, read day 7)	cell death (Annexin V positivity) (RAW 264.7 cells; single treatment 6.25 to 50 μM, 24 hrs)	remaining at 24 h [3, 5] [%]	remaining at 24 h [3, 6] [%]	bone density (bone volume/total volume, BV/TV) (tumor bearing tibias)	bone anabolic effects [4]
CCCC[C@@H]1NC(=O)CN(S(C)(=O)=O)CCNC(=O)[C@H](CCCCN)NC(=O)[C@H](CC(C)C)NC(=O)[C@H](CCCCN)NC(=O)[C@H](CC(C)C)NC(=O)[C@H](CCCCN)NC(=O)COC[C@H]2CCCN2C(=O)[C@H](Cc2c[nH]c3ccccc23)NC(=O)[C@H](C)NC(=O)[C@H](C(C)C)NC(=O)[C@H](C(C)C)NC1=O [MTI-101] (Ms-[N(2-Aminoethyl)Gly][Nle]VVAW[dProlinol(O-CH2CO)]KLKLK; lactam 1-C)	85	83	67	nor did it induce cell death	nor did it induce cell death	94	90		
CC(C)C[C@H](NC(=O)[C@H](Cc1ccccc1)NC(=O)c1cnccn1)B(O)O [bortezomib]								increased bone density	induce bone anabolic effects
CC(C)C[C@H](NC(=O)[C@H](CCc1ccccc1)NC(=O)CN1CCOCC1)C(=O)N[C@@H](Cc1ccccc1)C(=O)N[C@@H](CC(C)C)C(=O)[C@@]1(C)CO1 [carfilzomib]									induce bone anabolic effects
